Assay results reported in patent US20260083853A1, “CD70 ANTIBODY DRUG CONJUGATES AND METHODS OF USING THE SAME” (Genmab A/S, priority 2022, published 2026).

System: human CD70-expressing tumor cells (Raji, Caki-1, 786-O)
Assay: In vitro cytotoxicity (CTG, 96 h), all cell lines
Assay type: cell-based
Procedure: Raji (ATCC, CCL-86), Caki-1 (Cobioer, CBP60448), and 786-O (BNCC, BNCC338472) were cultured in CO2 thermostatic incubator at 37° C. with 5% CO2 in standard conditions. Cells were sub-cultured every 1-2 days, digested with 0.25% trypsin and passaged with a suitable density. When the cells were in the logarithmic growth phase and the amount meeting the assay's demand, cells were collected and plated onto 96-well solid white flat bottom plates for assay. One day later test articles (2E7 antibody or 2E7-LD038 conjugate ranging from 2 μM to 0.1 nM, or exatecan ranging from 20 μM to 0.03 nM) were added to the cells. Plates were then incubated at 37° C. for 96 h. Cell Titer Glo (CTG) (40 μl per well) was subsequently added to the plates. Luciferase reading was collected 5 min after and analyzed by Microplate readers. All readings were normalized as percentage of viable cells in the untreated control wells and the IC50 values were calculated by Prism software.

CC[C@@]1(O)C(=O)OCc2c1cc1n(c2=O)Cc2c-1nc1cc(F)c(C)c3c1c2[C@@H](N)CC3 [Exatecan, exatecan]
cytotoxicity: cytotoxic on all cell lines
